Results published in patent publication US20250186396A1, “COMPOSITIONS AND METHODS FOR THE TREATMENT OF GLIOBLASTOMA WITH A DUAL TARGETING ANTI-TUMOR COMPOSITION” (Northwestern University, priority 2023, published 2025).

Test system: OLFML3
Assay: RT-qPCR of OLFML3 in PTEN-KO SF763 cells
Format: cell-based, human
Conditions: shC PTEN-KO SF763 cells; SC75741 5 μM; 8 hours
Description: Cell Culture. The GBM cell lines U87, U251, SF763, LN229, and CT2A, as well as 293T cells were cultured in Dulbecco's Modified Eagle's Medium (DMEM; Gibco, #11995-065). The mouse glioma cell line GL261 cells and SIM-A9 microglia were cultured in Dulbecco's Modified Eagle Medium-Ham's F12 medium (Gibco, #10565-018). HMC3 microglia were cultured in Eagle's Minimum Essential Medium (ATCC, #30-2003). THP-1 macrophages were cultured in RPMI 1640 medium (Gibco, #11875093). All cell lines were cultured in the indicated medium containing 10% fetal bovine serum (FBS; Fisher Scientific, #16140071) and 1:100 antibiotic-antimycotic (Gibco, #15140-122), and were purchased from the American Type Culture Collection (ATCC). Human GSCs (GSC23 and GSC7-10) and mouse GBM tumor-derived 005 GSCs and QPP7 GSCs were cultured in neural stem cell (NSC) proliferation media (Millipore, #SCM005) containing 20 ng/mL epidermal growth factor (EGF; PeproTech, #AF-100-15) and basic fibroblast growth factor (bFGF; PeproTech, #100-18B). Human GSCs were gifted by Dr. Frederick F. Lang from the Brain Tumor Center (The University of Texas MD Anderson Cancer Center). […]
Quantitative real-time PCR (RT-qPCR). […] RNA was quantified by NanoDrop spectrophotometers and then the All-In-One 5× RT MasterMix (Applied Biological Materials, #G592) was used to reverse-transcribe RNA into cDNA in T100 Thermal Cycler (Bio-Rad). […]

O=C(c1ccccc1)c1ccc2nc(NC(=O)c3csc(C4CCN(c5ncnc6ccsc56)CC4)n3)[nH]c2c1 [SC75741]
mRNA expression of OLFML3: upregulated
